Data set [1] concerns BV-2 microglial cells. Description: LPS-induced NO production in BV-2 microglial cells (Griess, nitrite). The following applies: LPS 100 ng/ml; for inhibition at 10 µM: Mus musculus, BV-2 microglial cells, 10 μM compound, LPS-increased NO production = 100%. It is filed as cell-based, murine. As to the method: (§1) BV-2 cells, a murine microglial cell line, were cultured in Dulbecco's modified Eagle's medium (DMEM) containing 5% heat-inactivated FBS and 50 μg/ml gentamicin at 37° C. Rat microglial HAPI cells and mouse primary astrocytes were cultured in DMEM (10% FBS, 10 U/ml penicillin, 10 μg/ml streptomycin) at 37° C. All animals and experimental procedures were approved by the Institutional Review Board of Kyungpook National University School of Pharmacy and were carried out in accordance with the NIH Guide for the Care and Use of Laboratory Animals. All animals were maintained under temperature- and humidity-controlled conditions.
The production of nitric oxide (NO) was estimated by measuring the amount of nitrite, which is a NO metabolite. The BV-2 cells (40,000 cells/well in 96-well plates) were treated with 100 ng/ml of LPS in the presence or absence of the compounds from the library. At the end of a 24 hour incubation period, 50 μl of the cell culture media was mixed with an equal volume of a Griess reagent in each well. The light absorbance was measured at 540 nm, while a standard curve was generated using sodium nitrite.
(§2) Specifically, the BV-2 cells were cultured in 96-well plates and stimulated with LPS at a concentration of 100 ng/ml. The BV-2 cells stimulated with LPS were treated with 3,500 low molecular weight substances (FIG. 1).
While an increased NO production by LPS is designated as 100%, a suppressed amount of NO production by each derivative of Compound 1 is presented by its respective percentage.
(Nitrite, measured by Griess reagent, commonly stands in for NO production.)

Data set [2] concerns LPS-induced mouse neuroinflammation model. Nature of the data set: LPS-induced mouse neuroinflammation model (Iba-1 immunostaining, real-time RT-PCR of brain). It is filed as in vivo, C57BL/6 mice. The following applies: 72 h after LPS. As to the method: (§3) Total RNA was extracted from microglial cells or brain tissues using TRIZOL reagent (Invitrogen, Carlsbad, Calif., USA). Reverse transcription (RT) was performed using Superscript II reverse transcriptase (Invitrogen) and Oligo (dT) primers. Traditional polymerase chain reaction (PCR) amplification was performed using specific primer sets at annealing temperature 55-60° C. for 20-30 cycles. PCR was performed using C1000 Touch Thermal Cycler. For the PCR product analysis, 10 μl of each PCR reaction was electrophoresed on 1% agarose gel and detected under ultraviolet light.
(§4) Real-time RT-PCR was performed using Perfect Real-Time One Step SYBR Primer Script RT-PCR Kit (Takara Bio, Otsu, Shiga, Japan).
LPS was intraperitoneally administered according to a conventionally known method for producing neuroinflammatory mouse model. All experiments were performed on C57BL/6 mice aged 9-11 weeks, and the animals were supplied from Koatech. In each experiment, the animals were divided into four groups (Group 1, vehicle-treated group; Group 2, Compound 1-treated group; Group 3, LPS & vehicle-treated group; Group 4, LPS & Compound 1-treated group). Compound 1 (2 mg/kg) was dissolved in saline containing 5% DMSO and 40% polyethylene glycol and administered intraperitoneally daily for 4 days. LPS (5 mg/kg) induced a neuroinflammatory animal model by intraperitoneally administering its single dose on the second day.
For histological analysis, 72 hours after the administration of LPS, the animals were anesthetized and perfused transcardially first with saline and then with 4% paraformaldehyde. The activity of microglial cells was evaluated using Iba-1 staining. At least three animals were included in each experimental group. […]
The mice were then sacrificed, and the Iba-1 levels were analyzed as molecular markers of microglia activation (FIG. 6B).
The Iba-1-stained cells whose intensity values were above an arbitrarily defined threshold were counted from each of three brain regions, including the cortex, hippocampus, and substantia nigra.
(In general: Quantitative PCR measures a nucleic acid by following its amplification.)

The subject of data set [3] is BV-2 microglial cells. Description: RT-PCR of LPS-induced pro-inflammatory gene expression in BV-2 cells. The format is cell-based, murine. The settings on record: pre-treatment. The protocol:
as §3, §4
The primer sequences were designed based on published cDNA sequences (See Table 1).
Next, the effect of Compound 1 on the LPS-induced expression of pro-inflammatory mediators was examined in the BV-2 microglial cells.

Data set [4] can be described thus: Brain distribution and half-life after intraperitoneal administration. The format is in vivo. The following applies: 2 mg/kg, previous study by the inventors.
Data set [5] relates to HAPI rat microglial cells. Nature of the data set: LPS-induced NO release in HAPI cells. The settings on record: various concentrations, 24 hours. The format is cell-based. The protocol:
as §1
(§5) The present inventors confirmed the anti-neuroinflammatory effect of Compound 1, which was identified in Example 1, in the HAPI rat microglial cells and the RAW264.7 macrophage cells. The cells were cultured in 96-well plates, followed by treatment with various concentrations of Compound 1 with LPS, respectively. After 24 hours of such a treatment, NO release was examined.

Another data set relates to BV-2 cells. Description: Cell viability, MTT assay. It is filed as cell-based, murine. The protocol: Cell viability was assessed using MTT assay. After treatment with LPS and the compounds, the culture solution was aspirated and removed. MTT (0.5 mg/ml in PBS) was added to the cells and incubated at 37° C. for 4 hours. The resulting formazan was dissolved in DMSO. The absorbance was determined at 570 nm using a microplate reader.
as §2
(In general: Tetrazolium assays rely on reduction of a dye to a coloured formazan, in cell work by metabolically active cells.)

Data set [6] relates to RAW264.7 macrophage cells. Description: LPS-induced NO release in RAW264.7 cells. The following applies: various concentrations, 24 hours. It is filed as cell-based. The protocol: as §5
The subject of the next data set is astrocytes. Nature of the data set: NO, TNF-α production and Ym-1 expression in astrocytes. The format is cell-based, mouse. As to the method:
as §1
The mouse primary microglial cells were cultured under mild conditions according to known methods. In brief, the forebrains of 3-5 day-old C57BL/6 mice were harvested and mechanically pulverized using a nylon mesh. The cells were seeded onto a poly-L-lysine-coated flasks and then cultured. After in vitro culture of 10-14 days, the microglial cells were isolated from the mixed glial cultures by shaking for 6 hours at 200 rpm. Astrocytes remained attached to the bottom of the culture flask were used for the following experiments. 3. High Throughput Screening
The production of nitric oxide (NO) was estimated by measuring the amount of nitrite, which is a NO metabolite. The BV-2 cells (40,000 cells/well in 96-well plates) were treated with 100 ng/ml of LPS in the presence or absence of the compounds from the library. […] The light absorbance was measured at 540 nm, while a standard curve was generated using sodium nitrite.
The BV-2 cells or astrocytes were treated with LPS and Compound 1, followed by culturing for 24 hours. The TNF-α levels in the culture media were measured using a rat monoclonal anti-mouse TNF-α antibody as a primary antibody and a goat anti-mouse TNF-α antibody as a secondary antibody.
Total RNA was extracted from microglial cells or brain tissues using TRIZOL reagent (Invitrogen, Carlsbad, Calif., USA). […] For the PCR product analysis, 10 μl of each PCR reaction was electrophoresed on 1% agarose gel and detected under ultraviolet light. […]

Where [7] appears, read: 2 mg/kg i.p., LPS 5 mg/kg, real-time RT-PCR.

“Also recorded” adds a separate entry of the source.

In the data set with BV-2 microglial cells [1], `CCC(OC(=O)N(Cc1ccccc1)C(=O)Nc1ccc(OC)cc1)c1cc(-c2ccc(OC(C)(C)C(=O)O)cc2)no1` (centres unmarked) [Compound 4-methoxy, 2-(4-(5-(1-((benzyl((4-methoxyphenyl)carbamoyl)carbamoyl)oxy)propyl)isoxazol-3-yl)phenoxy)-2-methylpropanoic acid] gave an inhibition at 10 µM of 46.7%.
On the same count and under the same terms, the value for `CCC(OC(=O)N(Cc1ccccc1)C(=O)Nc1ccc(Cl)cc1)c1cc(-c2ccc(OC(C)(C)C(=O)O)cc2)no1` (centres unmarked) [Compound 4-chloro] was 67.8%.
`CCC(OC(=O)N(Cc1ccccc1)C(=O)Nc1ccc2c(c1)OCO2)c1cc(-c2ccc(OC(C)(C)C(=O)O)cc2)no1` (centres unmarked) [3,4-methylenedioxy]: testing at 10 µM with BV-2 microglial cells [1] gave an inhibition of 74.6%.
Same read-out and setting: the value for `CCCCc1ccc(NC(=O)N(Cc2ccccc2)C(=O)OC(CC)c2cc(-c3ccc(OC(C)(C)C(=O)O)cc3)no2)cc1` (centres unmarked) [Compound 4-n-butyl, 2-(4-(5-(1-((benzyl((4-n-butylmethylphenyl)carbamoyl)carbamoyl)oxy)propyl)isoxazol-3-yl)phenoxy)-2-methylpropanoic acid] was 58.3%.
In the case of `CCC(OC(=O)N(Cc1ccccc1)C(=O)Nc1ccc(C(F)(F)F)cc1)c1cc(-c2ccc(OC(C)(C)C(=O)O)cc2)no1` (centres unmarked) [4-trifluoromethyl, 2-(4-(5-(1-((benzyl((4-trifluoromethylphenyl)carbamoyl)carbamoyl)oxy)propyl)isoxazol-3-yl)phenoxy)-2-methylpropanoic acid], in the data set with BV-2 microglial cells [1], the inhibition at 10 µM was determined as 52.7%.
Same read-out and setting: the figure for `CCC(OC(=O)N(Cc1ccccc1)C(=O)Nc1ccc(OC)c(OC)c1)c1cc(-c2ccc(OC(C)(C)C(=O)O)cc2)no1` (centres unmarked) [3,4-dimethoxy, 2-(4-(5-(1-((benzyl((3,4-dimethoxymethylphenyl)carbamoyl)carbamoyl)oxy)propyl)isoxazol-3-yl)phenoxy)-2-methylpropanoic acid] is 60.7%.
Turning to `CCC(OC(=O)N(Cc1ccccc1)C(=O)Nc1ccccc1)c1cc(-c2ccc(OC(C)(C)C(=O)O)cc2)no1` (centres unmarked) [Compound 1, 2-(4-(5-(1-((benzyl(phenylcarbamoyl)carbamoyl)oxy)propyl)isoxazol-3-yl)phenoxy)-2-methylpropanoic acid], the “inhibition of NO production in microglial cells (high-throughput screening)” value with BV-2 microglial cells [1] (BV-2 cells) is reported as “effectively inhibiting NO production”. This compound returned an inhibition at 10 µM in the data set with BV-2 microglial cells [1] of 73.4%. In addition, the “LPS-induced microglial activation (Iba-1 positive cells)” value in data set [2] (2 mg/kg i.p. daily for 4 days, LPS 5 mg/kg i.p., cortex, hippocampus, substantia nigra) was “significantly reduced; also recorded: effectively blocked”. In data set [2] (setting [7]), the “expression level of IL-1β mRNA in brain” value is “significantly diminished” and the “expression level of TNF-α mRNA in brain” value is recorded as “significantly diminished”. Also, in the data set with BV-2 microglial cells [3], the “expression of IL-1β gene” value is on record as “significantly reduced”, the “expression of TNF-α gene” value is reported as “significantly reduced” and the “expression of iNOS gene” value is listed as “significantly reduced”. The brain distribution in data set [4] amounted to 0.19 µg/h/mL. For the same compound, the half-life in data set [4] (brain, ip) was 5.23 h. For the same compound, the “LPS-induced NO release” value in data set [5] is “inhibits the LPS-induced NO release in the microglial and macrophage cells in a dose-dependent manner”. The cytotoxicity entry in the data set on BV-2 cells is recorded as “low in cytotoxicity”. Moreover, the “LPS-induced NO release” value in data set [6] is “inhibits the LPS-induced NO release in the microglial and macrophage cells in a dose-dependent manner”. In the data set with astrocytes (IL-4), the “IL-4-induced Ym-1 expression in astrocytes” value is “increasing”. Besides, in the data set with astrocytes (LPS), the “LPS-induced NO production in astrocytes” value was “inhibited” and the “LPS-induced TNF-α production in astrocytes” value is “inhibited”.
As for `CCC(OC(=O)N(Cc1ccccc1)C(=O)Nc1cc(OC)cc(OC)c1)c1cc(-c2ccc(OC(C)(C)C(=O)O)cc2)no1` (centres unmarked) [3,5-dimethoxy], the inhibition at 10 µM with BV-2 microglial cells [1] is 56.7%.
Take `CCC(OC(=O)N(Cc1ccccc1)C(=O)Nc1ccccc1OC)c1cc(-c2ccc(OC(C)(C)C(=O)O)cc2)no1` (centres unmarked) [Compound 2-methoxy, 2-(4-(5-(1-((benzyl((2-methoxyphenyl)carbamoyl)carbamoyl)oxy)propyl)isoxazol-3-yl)phenoxy)-2-methylpropanoic acid]: in the data set on BV-2 microglial cells [1], 10 µM produced 20.9% inhibition.
In the data set on BV-2 microglial cells [1], `CCC(OC(=O)N(Cc1ccccc1)C(=O)Nc1ccc(C)cc1)c1cc(-c2ccc(OC(C)(C)C(=O)O)cc2)no1` (centres unmarked) [Compound 4-methyl, 2-(4-(5-(1-((benzyl((4-methylphenyl)carbamoyl)carbamoyl)oxy)propyl)isoxazol-3-yl)phenoxy)-2-methylpropanoic acid] came in with an inhibition at 10 µM of 46.7%.
With `CCC(OC(=O)N(Cc1ccccc1)C(=O)Nc1cccc(OC)c1)c1cc(-c2ccc(OC(C)(C)C(=O)O)cc2)no1` (centres unmarked) [Compound 3-methoxy, 2-(4-(5-(1-((benzyl((3-methoxyphenyl)carbamoyl)carbamoyl)oxy)propyl)isoxazol-3-yl)phenoxy)-2-methylpropanoic acid], 10 µM produced 25.6% inhibition in the data set on BV-2 microglial cells [1].

What is called inhibition is the drop in the measured response relative to a control, in per cent. The low end stands for a response near the control, the high end for a response far below the control. For orientation: half-life means the time in which the quantity being followed falls by half.

The values are drawn from patent publication US10238635B2, “N-carbamoylated urethane for treating a neuroinflammatory disease” (Kyungpook National University Industry—Academic Cooperation …, priority 2016, dated 2019).
